Source: patent US11285127B2, “Compositions and methods for lowering triglycerides without raising LDL-C levels in a subject on concomitant statin therapy” (Amarin Pharmaceuticals Ireland Limited, priority 2013, dated 2022)

Tests used:
[1] = test system: patients with fasting triglyceride levels >200 mg/dl and <500 mg/dl despite statin therapy; experiment: 12-week study: glucose metabolism (FPG, HbA1c, insulin, HOMA-IR); format: in vivo, human; details: MITT; for Fasting plasma glucose Percent change from Baseline Median (IQR) / HOMA-IR Percent change from Baseline Median (IQR) / HbAlc Percent change from Baseline Median (IQR) / Insulin Percent change from Baseline Median (IQR): Week 12 EP; for Fasting plasma glucose Percent change from Baseline Median (IQR) / HOMA-IR Percent change from Baseline Median (IQR) / HbAlc Percent change from Baseline Median (IQR) / Insulin Percent change from Baseline Median (IQR) / Fasting plasma glucose Difference from placebo Estimated median / HOMA-IR Difference from placebo Estimated median / HbAlc Difference from placebo Estimated median / Insulin Difference from placebo Estimated median: ANCOVA; for Fasting plasma glucose Difference from placebo Estimated median / HOMA-IR Difference from placebo Estimated median / HbAlc Difference from placebo Estimated median / Insulin Difference from placebo Estimated median: change from baseline to Week 12 EP
Excerpt: (§1) Parameters (a)-(z) can be measured in accordance with any clinically acceptable methodology. For example, triglycerides, total cholesterol, HDL-C and fasting blood sugar can be sample from serum and analyzed using standard photometry techniques. VLDL-TG, LDL-C and VLDL-C can be calculated or determined using serum lipoprotein fractionation by preparative ultracentrifugation and subsequent quantitative analysis by refractometry or by analytic ultracentrifugal methodology. Apo A1, Apo B and hsCRP can be determined from serum using standard nephelometry techniques. Lipoprotein (a) can be determined from serum using standard turbidimetric immunoassay techniques. LDL particle number and particle size can be determined using nuclear magnetic resonance (NMR) spectrometry. Remnants lipoproteins and LDL-phospholipase A2 can be determined from EDTA plasma or serum and serum, respectively, using enzymatic immunoseparation techniques. Oxidized LDL, intercellular adhesion molecule-1 and interleukin-2 levels can be determined from serum using standard enzyme immunoassay techniques. These techniques are described in detail in standard textbooks, for example Tietz Fundamentals of Clinical Chemistry, 6th Ed. (Burtis, Ashwood and Borter Eds.), WB Saunders Company.
(§2) A multi-center, placebo-controlled, randomized, double-blind, 12-week study was performed to evaluate the efficacy and safety of >96% E-EPA in patients with fasting triglyceride levels >200 mg/dl and <500 mg/dl despite statin therapy (the mean of two qualifying entry values needed to be >185 mg/dl and at least one of the values needed to be >200 mg/dl). The primary objective of the study was to determine the efficacy of >96% E-EPA 2 g daily and 4 g daily, compared to placebo, in lowering fasting TG levels in patients with high risk for cardiovascular disease and with fasting TG levels 200 mg/dl and <500 mg/dl, despite treatment to LDL-C goal on statin therapy.
(§3) The secondary objectives of this study were the following: • 1. To determine the safety and tolerability of >96% E-EPA 2 g daily and 4 g daily; • 2. To determine the effect of >96% E-EPA on lipid and apolipoprotein profiles including total cholesterol (TC), non-high-density lipoprotein cholesterol (non-HDL-C), low density lipoprotein cholesterol (LDL-C), high density lipoprotein cholesterol (HDL-C), and […]; • 3. To determine the effect of >96% E-EPA on lipoprotein associated phospholipase A2 (Lp-PLA2) from baseline to week 12; • 4. To determine the effect of >96% E-EPA on low-density lipoprotein (LDL) particle number and size; • 5. To determine the effect of >96% E-EPA on oxidized LDL; • 6. To determine the effect of >96% E-EPA on fasting plasma glucose (FPG) and hemoglobin A1c (HbA1c); • 7. To determine the effect of >96% E-EPA on insulin resistance; • 8. To determine the effect of >96% E-EPA on high-sensitivity C-reactive protein (hsCRP); • 9. To determine the effects of >96% E-EPA 2 g daily and 4 g daily on the incorporation of fatty acids into red blood cell membranes and into plasma phospholipids; • 10. To explore the relationship between baseline fasting TG levels and the reduction in fasting TG levels; and • 11. To explore the relationship between changes of fatty acid concentrations in plasma and red blood cell membranes, and the reduction in fasting TG levels.
(§4) The primary efficacy variable for the double-blind treatment period was percent change in TG from baseline to Week 12 endpoint. […]

[2] = test system: patients with fasting triglyceride levels >200 mg/dl and <500 mg/dl despite statin therapy; experiment: 12-week study: inflammatory biomarkers (ICAM-1, interleukin, PAI-1, hsCRP); format: in vivo, human; details: MITT; for ICAM-1, Difference from placebo, Estimated median / IL-6, Difference from placebo, Estimated median / PAI-1, Difference from placebo, Estimated median / hsCRP, Difference from placebo, Estimated median: Week 12; for hsCRP, Difference from placebo, Estimated median: post-hoc, median percent change from baseline; for ICAM-1, Week 12 EP Median (IQR) / IL-6, Week 12 EP Median (IQR) / PAI-1, Week 12 EP Median (IQR) / hsCRP, Week 12 EP Median (IQR): Week 12 endpoint (LOCF); for hsCRP, Week 12 EP Median (IQR) / hsCRP, Median % Chg from BL (IQR): post-hoc analysis; for ICAM-1, change from Baseline, Median (IQR) / IL-6, change from Baseline, Median (IQR) / PAI-1, change from Baseline, Median (IQR) / hsCRP, Median % Chg from BL (IQR): baseline to Week 12
Excerpt: as §1, §2, §3, §4

[3] = AMR101 2 g/d + statin vs placebo
[4] = AMR101 4 g/d + statin vs placebo

SMILES: CC/C=C\C/C=C\C/C=C\C/C=C\C/C=C\CCCC(=O)OCC [AMR101, ethyl eicosapentaenoate]
- Fasting plasma glucose Week 12 EP Median (IQR) ([1]; AMR101 2 g/d + statin): 138.0 (44.9) mg/dL
- HOMA-IR Week 12 EP Median (IQR) ([1]; AMR101 2 g/d + statin): 6.4 (4.5)
- HbAlc Week 12 EP Median (IQR) ([1]; AMR101 2 g/d + statin): 6.8 (1.2) %
- Insulin Week 12 EP Median (IQR) ([1]; AMR101 2 g/d + statin): 18.6 (11.0) μIU/mL
- Fasting plasma glucose Percent change from Baseline Median (IQR) ([1]; AMR101 2 g/d + statin): 3.6 (2.1) %
- HOMA-IR Percent change from Baseline Median (IQR) ([1]; AMR101 2 g/d + statin): −0.6 (0.4) %
- HbAlc Percent change from Baseline Median (IQR) ([1]; AMR101 2 g/d + statin): 0.2 (0.04) %
- Insulin Percent change from Baseline Median (IQR) ([1]; AMR101 2 g/d + statin): −1.2 (0.9) %
- Fasting plasma glucose Difference from placebo Estimated median ([1]; AMR101 2 g/d + statin): −0.6 (3.0)
- HOMA-IR Difference from placebo Estimated median ([1]; AMR101 2 g/d + statin): −0.1 (0.5)
- HbAlc Difference from placebo Estimated median ([1]; AMR101 2 g/d + statin): −0.0 (0.05)
- Insulin Difference from placebo Estimated median ([1]; AMR101 2 g/d + statin): −0.1 (1.3)
- Fasting plasma glucose Week 12 EP Median (IQR) ([1]; AMR101 4 g/d + statin): 141.9 (51.1) mg/dL
- HOMA-IR Week 12 EP Median (IQR) ([1]; AMR101 4 g/d + statin): 6.9 (6.7)
- HbAlc Week 12 EP Median (IQR) ([1]; AMR101 4 g/d + statin): 6.9 (1.1) %
- Insulin Week 12 EP Median (IQR) ([1]; AMR101 4 g/d + statin): 19.0 (16.2) μIU/mL
- Fasting plasma glucose Percent change from Baseline Median (IQR) ([1]; AMR101 4 g/d + statin): 8.9 (2.1) %
- HOMA-IR Percent change from Baseline Median (IQR) ([1]; AMR101 4 g/d + statin): −0.1 (0.4) %
- HbAlc Percent change from Baseline Median (IQR) ([1]; AMR101 4 g/d + statin): 0.3 (0.04) %
- Insulin Percent change from Baseline Median (IQR) ([1]; AMR101 4 g/d + statin): −1.1 (0.9) %
- Fasting plasma glucose Difference from placebo Estimated median ([1]; AMR101 4 g/d + statin): 4.7 (3.0)
- HOMA-IR Difference from placebo Estimated median ([1]; AMR101 4 g/d + statin): 0.3 (0.6)
- HbAlc Difference from placebo Estimated median ([1]; AMR101 4 g/d + statin): 0.1 (0.05)
- Insulin Difference from placebo Estimated median ([1]; AMR101 4 g/d + statin): 0.0 (1.3)
- ICAM-1, Difference from placebo, Estimated median [2, 3]: -6.0 ng/mL
- IL-6, Difference from placebo, Estimated median [2, 3]: 0.1 pg/mL
- PAI-1, Difference from placebo, Estimated median [2, 3]: 12.1 ng/mL
- hsCRP, Difference from placebo, Estimated median [2, 3]: −6.8%
- ICAM-1, Week 12 EP Median (IQR) ([2]; AMR101 2 g/d + statin): 268.5 (89.0) ng/mL
- IL-6, Week 12 EP Median (IQR) ([2]; AMR101 2 g/d + statin): 2.7 (2.3) pg/mL
- PAI-1, Week 12 EP Median (IQR) ([2]; AMR101 2 g/d + statin): 90.3 (67.4) ng/mL
- hsCRP, Week 12 EP Median (IQR) ([2]; AMR101 2 g/d + statin): 2.5 (3.4) mg/L
- ICAM-1, change from Baseline, Median (IQR) ([2]; AMR101 2 g/d + statin): 1.5 (37.0) ng/mL
- IL-6, change from Baseline, Median (IQR) ([2]; AMR101 2 g/d + statin): 0.2 (1.3) pg/mL
- PAI-1, change from Baseline, Median (IQR) ([2]; AMR101 2 g/d + statin): 14.6 (38.8) ng/mL
- hsCRP, Median % Chg from BL (IQR) ([2]; AMR101 2 g/d + statin): 10.3 (88.6) %
- ICAM-1, Difference from placebo, Estimated median [2, 4]: -6.0 ng/mL
- IL-6, Difference from placebo, Estimated median [2, 4]: -0.1 pg/mL
- PAI-1, Difference from placebo, Estimated median [2, 4]: 0.6 ng/mL
- hsCRP, Difference from placebo, Estimated median [2, 4]: −22.0%
- ICAM-1, Week 12 EP Median (IQR) ([2]; AMR101 4 g/d + statin): 270.0 (110.0) ng/mL
- IL-6, Week 12 EP Median (IQR) ([2]; AMR101 4 g/d + statin): 2.6 (2.1) pg/mL
- PAI-1, Week 12 EP Median (IQR) ([2]; AMR101 4 g/d + statin): 85.6 (86.3) ng/mL
- hsCRP, Week 12 EP Median (IQR) ([2]; AMR101 4 g/d + statin): 2.0 (3.0) mg/L
- ICAM-1, change from Baseline, Median (IQR) ([2]; AMR101 4 g/d + statin): 2.5 (40.0) ng/mL
- IL-6, change from Baseline, Median (IQR) ([2]; AMR101 4 g/d + statin): 0.1 (1.8) pg/mL
- PAI-1, change from Baseline, Median (IQR) ([2]; AMR101 4 g/d + statin): −3.1 (45.2) ng/mL
- hsCRP, Median % Chg from BL (IQR) ([2]; AMR101 4 g/d + statin): −2.4 (62.8) %
